# Laboratory results taken from ChEMBL document CHEMBL1148200, “Kulokekahilide-2, a cytotoxic depsipeptide from a cephalaspidean mollusk Philinopsis speciosa” (J Nat Prod, 2004).
# Assays:
# P388 = assay: Cytotoxicity against mouse P388 cells; format: functional, cell-based
# MDA-MB-435 = assay: Cytotoxicity against human MDA-MB-435 cells; format: functional, cell-based
# SK-OV-3 = assay: Cytotoxicity against human SKOV3 cells; format: functional, cell-based
# A10 = assay: Cytotoxicity against rat A10 cells; format: cell-based
smiles,measurement,setting,value
C/C=C(\C)[C@H]1OC(=O)[C@H](C)NC(=O)[C@H]([C@@H](C)CC)NC(=O)CN(C)C(=O)[C@H](Cc2ccccc2)N(C)C(=O)[C@@H](C)NC(=O)[C@@H](CC(C)C)OC(=O)/C(C)=C/C[C@H](O)[C@@H]1C,IC50,P388,4.2 nM
same,IC50,MDA-MB-435,14.6 nM
same,IC50,SK-OV-3,7.5 nM
same,IC50,A10,59.1 nM
